Experimental data reported in US9890133B2 (priority 2011, dated 2018).
In brackets after ≈: the same amount, converted by molar mass.

Tests used:
Poliovirus 3 = assay: microbe, parasite or virus in culture; type: cell-based; settings: Enterovirus C, read-out: Poliovirus3 EC50
in vitro = settings: human

Structure (SMILES)	EC50 (Poliovirus 3) [µg/mL]	CC50 (in vitro) [µg/mL]	CC50 (in vitro; Picorana CC50) [µg/mL]
CCCCC(=O)NC12C(=O)c3c(N)cccc3C1(OC(=O)CCCC)Oc1cc(C(C)C)ccc12 (stereo not shown) [Example 96, 1-Amino-7-isopropyl-10-oxo-9b-pentanamido-9b,10-dihydro-4bH-benzo[d]indeno[1,2-b]furan-4b-yl pentanoate]	0.016 (≈ 0.0334 µM)	24 (≈ 50.1 µM)	> 50
COC(=O)OC12Oc3cc(C(C)C)ccc3C1(NC(C)=O)C(=O)c1c(N)cccc12 (stereo not shown) [Example 113, 9b-acetamido-1-amino-7-isopropyl-10-oxo-9b,10-dihydro-4bH-indeno[1,2-b]benzofuran-4b-yl methyl carbonate]	< 0.01	48.8 (≈ 119 µM)	45.5 (≈ 111 µM)
CC(C)c1ccc2c(c1)OC1(O)c3cccc(N)c3C(=O)C21NC(=O)C(C)(C)C (stereo not shown) [Example 114, N-(1-Amino-4b-hydroxy-7-isopropyl-10-oxo-9b,10-dihydro-4bH-benzo[d]indeno[1,2-b]furan-9b-yl)pivalamide]	0.034 (≈ 0.0862 µM)	43.1 (≈ 109 µM)	45.9 (≈ 116 µM)
CCCCOC(=O)OC12Oc3cc(C(C)C)ccc3C1(NC(C)=O)C(=O)c1c(N)cccc12 (stereo not shown) [Example 115, 9b-Acetamido-1-amino-7-isopropyl-10-oxo-9b,10-dihydro-4bH-benzo[d]indeno[1,2-b]furan-4b-yl butyl carbonate]	< 0.01	23.1 (≈ 51.1 µM)	42.8 (≈ 94.6 µM)
CCOC(=O)OC12Oc3cc(C(C)C)ccc3C1(NC(C)=O)C(=O)c1c(N)cccc12 (stereo not shown) [Example 123, 9b-Acetamido-1-amino-7-isopropyl-10-oxo-9b,10-dihydro-4bH-benzo[d]indeno[1,2-b]furan-4b-yl ethyl carbonate]	< 0.01	43.4 (≈ 102 µM)	37.5 (≈ 88.4 µM)
CCC(=O)NC12C(=O)c3c(N)cccc3C1(O)Oc1cc(C(C)C)ccc12 (stereo not shown) [Example 143, N-(1-Amino-4b-hydroxy-7-isopropyl-10-oxo-9b,10-dihydro-4bH-indeno[1,2-b]benzofuran-9b-yl)propionamide]	< 0.01	58.1 (≈ 158 µM)	> 50
CCCC(=O)NC12C(=O)c3c(N)cccc3C1(O)Oc1cc(C(C)C)ccc12 (stereo not shown) [Example 144, N-(1-Amino-4b-hydroxy-7-isopropyl-10-oxo-9b,10-dihydro-4bH-indeno[1,2-b]benzofuran-9b-yl) butyramide]	< 0.01	21.7 (≈ 57.1 µM)	35.5 (≈ 93.3 µM)
CC(C)c1ccc2c(c1)OC1(O)c3ccccc3C(=O)C21NC(=O)c1cc2ccccc2oc1=O (stereo not shown) [Example 225, N-(4b-hydroxy-7-isopropyl-10-oxo-9b,10-dihydro-4bH-benzo[d]indeno[1,2-b]furan-9b-yl)-2-oxo-2H-chromene-3-carboxamide]	–	> 10	22.9 (≈ 48.9 µM)
CC(C)c1ccc2c(c1)OC1(O)c3ccccc3C(=O)C21NC(=O)c1ccc(=O)oc1 (stereo not shown) [Example 226, N-(4b-Hydroxy-7-isopropyl-10-oxo-9b,10-dihydro-4bH-benzo[d]indeno[1,2-b]furan-9b-yl)-2-oxo-2H-pyrane-5-carboxamide]	–	> 10	28.2 (≈ 67.5 µM)
CC(C)c1ccc2c(c1)OC1(O)c3ccccc3C(=O)C21NC(=O)c1nc2ccccc2[nH]1 (stereo not shown) [Example 227, N-(4b-hydroxy-7-isopropyl-10-oxo-9b,10-dihydro-4bH-benzo[d]indeno[1,2-b]furan-9b-yl)-1H-benzo[d]imidazole-2-carboxamide]	–	> 10	9.62 (≈ 21.9 µM)
Cc1onc(-c2c(F)cccc2Cl)c1C(=O)NC12C(=O)c3c(N)cccc3C1(O)Oc1cc(C(C)C)ccc12 (stereo not shown) [Example 228, N-(1-Amino-4b-hydroxy-7-isopropyl-10-oxo-9b,10-dihydro-4bH-indeno[1,2-b]benzofuran-9b-yl)-3-(2-chloro-6-fluorophenyl)-5-methylisooxazole-4-carboxamide]	–	> 10	24.1 (≈ 43.9 µM)
CC(C)c1ccc2c(c1)OC1(O)c3ccccc3C(=O)C21NC(=O)c1cc(-c2ccccc2)n[nH]1 (stereo not shown) [Example 229, N-(4b-hydroxy-7-isopropyl-10-oxo-9b,10-dihydro-4bH-indeno[1,2-b]benzofuran-9b-yl)-3-phenyl-1H-pyrazole-5-carboxamide]	–	4.51 (≈ 9.69 µM)	8.63 (≈ 18.5 µM)
CC(C)c1ccc2c(c1)OC1(O)c3ccccc3C(=O)C21NC(=O)c1cccnc1 (stereo not shown) [Example 230, N-(4b-Hydroxy-7-isopropyl-10-oxo-9b,10-dihydro-4bH-indeno[1,2-b]benzofuran-9b-yl)nicotinamide]	–	> 10	42.8 (≈ 107 µM)
CC(C)c1ccc2c(c1)OC1(O)c3cccc(N)c3C(=O)C21NC(=O)c1ccc(N)o1 (stereo not shown) [Example 232, 5-amino-N-(1-amino-4b-hydroxy-7-isopropyl-10-oxo-9b,10-dihydro-4bH-indeno[1,2-b]benzofuran-9b-yl)furane-2-carboxamide]	–	> 10	> 50
Cc1onc(-c2c(Cl)cccc2Cl)c1C(=O)NC12C(=O)c3ccccc3C1(O)Oc1cc(C(C)C)ccc12 (stereo not shown) [Example 236, 3-(2,6-dichlorophenyl)-N-(4b-hydroxy-7-isopropyl-10-oxo-9b,10-dihydro-4bH-benzo[d]indeno[1,2-b]furan-9b-yl)-5-methylisooxazole-4-carboxamide]	–	> 10	21.4 (≈ 38.9 µM)
CC(C)c1ccc2c(c1)OC1(O)c3cccc(N)c3C(=O)C21NC(=O)C1c2ccccc2Oc2ccccc21 (stereo not shown) [Example 237, N-(1-Amino-4b-hydroxy-7-isopropyl-10-oxo-9b,10-dihydro-4bH-benzo[d]indeno[1,2-b]furan-9b-yl)-9H-xanthene-9-carboxamide]	–	> 10	6.27 (≈ 12.1 µM)
CC(C)c1ccc2c(c1)OC1(O)c3ccccc3C(=O)C21NC(=O)c1cnnc2ccccc12 (stereo not shown) [Example 239, N-(4b-hydroxy-7-isopropyl-10-oxo-9b,10-dihydro-4bH-benzo[d]indeno[1,2-b]furan-9b-yl)cinnoline-4-carboxamide]	–	> 10	> 50
CC(C)c1ccc2c(c1)OC1(O)c3cccc(N)c3C(=O)C21NC(=O)c1c2ccccc2nc2ccccc12 (stereo not shown) [Example 241, N-(1-Amino-4b-hydroxy-7-isopropyl-10-oxo-9b,10-dihydro-4bH-benzo[d]indeno[1,2-b]furan-9b-yl)acridine-9-carboxamide]	–	> 10	7.86 (≈ 15.2 µM)
COc1cc(C(=O)NC23C(=O)c4c(N)cccc4C2(O)Oc2cc(C(C)C)ccc23)nc2ccccc12 (stereo not shown) [Example 247, N-(1-Amino-4b-hydroxy-7-isopropyl-10-oxo-9b,10-dihydro-4bH-benzo[d]indeno[1,2-b]furan-9b-yl)-4-methoxyquinoline-2-carboxamide]	–	> 10	20 (≈ 40.4 µM)
CC(C)c1ccc2c(c1)OC1(O)c3cccc(N)c3C(=O)C21NC(=O)c1cnccc1Cl (stereo not shown) [Example 254, N-(1-Amino-4b-hydroxy-7-isopropyl-10-oxo-9b,10-dihydro-4bH-indeno[1,2-b]benzofuran-9b-yl)-4-chloronicotinamide]	–	> 10	–
CC(C)c1ccc2c(c1)OC1(O)c3cccc(N)c3C(=O)C21NC(=O)c1sc2ccccc2c1Br (stereo not shown) [Example 264]	–	> 10	–
COc1c(C(=O)NC23C(=O)c4c(N)cccc4C2(O)Oc2cc(C(C)C)ccc23)cnc2ccc(F)cc12 (stereo not shown) [Example 267, N-(1-Amino-4b-hydroxy-7-isopropyl-10-oxo-9b,10-dihydro-4bH-indeno[1,2-b]benzofuran-9b-yl)-6-fluoro-4-methoxyquinoline-3-carboxamide]	–	0.86 (≈ 1.67 µM)	0.87 (≈ 1.69 µM)
CC(C)c1ccc2c(c1)OC1(O)c3cccc(N)c3C(=O)C21NC(=O)c1sc2cc(F)ccc2c1Cl (stereo not shown) [Example 269, N-(1-Amino-4b-hydroxy-7-isopropyl-10-oxo-9b,10-dihydro-4bH-indeno[1,2-b]benzofuran-9b-yl)-3-chloro-6-fluorobenzo[b]thiophene-2-carboxamide]	–	> 10	–
Cc1ccc2c(Cl)c(C(=O)NC34C(=O)c5c(N)cccc5C3(O)Oc3cc(C(C)C)ccc34)sc2c1 (stereo not shown) [Example 270, N-(1-Amino-4b-hydroxy-7-isopropyl-10-oxo-9b,10-dihydro-4bH-indeno[1,2-b]benzofuran-9b-yl)-3-chloro-6-methylbenzo[b]thiophene-2-carboxamide]	–	5.93 (≈ 11.4 µM)	6.57 (≈ 12.7 µM)
CC(C)c1ccc2c(c1)OC1(O)c3cccc(N)c3C(=O)C21NC(=O)c1ccc2nccnc2c1 (stereo not shown) [Example 277, N-(1-Amino-4b-hydroxy-7-isopropyl-10-oxo-9b,10-dihydro-4bH-indeno[1,2-b]benzofuran-9b-yl)quinoxaline-6-carboxamide]	–	> 10	–
Cc1ccn2cc(C(=O)NC34C(=O)c5c(N)cccc5C3(O)Oc3cc(C(C)C)ccc34)nc2c1 (stereo not shown) [Example 280, N-(1-Amino-4b-hydroxy-7-isopropyl-10-oxo-9b,10-dihydro-4bH-indeno[1,2-b]benzofuran-9b-yl)-7-methylimidazo[1,2-a]pyridine-2-carboxamide]	–	> 10	–
Cc1cc(C)n2ncc(C(=O)NC34C(=O)c5c(N)cccc5C3(O)Oc3cc(C(C)C)ccc34)c2n1 (stereo not shown) [Example 282, N-(1-Amino-4b-hydroxy-7-isopropyl-10-oxo-9b,10-dihydro-4bH-indeno[1,2-b]benzofuran-9b-yl)-5,7-dimethylpyrazolo[1,5-a]pyrimidine-3-carboxamide]	–	> 10	6.78 (≈ 14 µM)
CC(C)c1ccc2c(c1)OC1(O)c3cccc(N)c3C(=O)C21NC(=O)c1cc2ccccn2c1 (stereo not shown) [Example 283, N-(1-Amino-4b-hydroxy-7-isopropyl-10-oxo-9b,10-dihydro-4bH-indeno[1,2-b]benzofuran-9b-yl) indolizine-2-carboxamide]	–	> 10	5.47 (≈ 12.1 µM)
CC(C)c1ccc2c(c1)OC1(O)c3cccc(N)c3C(=O)C21NC(=O)c1cc(C(C)C)nc2c1cnn2C(C)C (stereo not shown) [Example 284, N-(1-Amino-4b-hydroxy-7-isopropyl-10-oxo-9b,10-dihydro-4bH-indeno[1,2-b]benzofuran-9b-yl)-1,6-diisopropyl-1H-pyrazolo[3,4-b]pyridine-4-carboxamide]	–	3.71 (≈ 6.88 µM)	4.56 (≈ 8.45 µM)
Cc1c(C(=O)NC23C(=O)c4c(N)cccc4C2(O)Oc2cc(C(C)C)ccc23)cnc2ccnn12 (stereo not shown) [Example 289, N-(1-Amino-4b-hydroxy-7-isopropyl-10-oxo-9b,10-dihydro-4bH-indeno[1,2-b]benzofuran-9b-yl)-7-methylpyrazolo[1,5-a]pyrimidine-6-carboxamide]	–	> 10	–
